Assay [1] has as its system Pseudomonas aeruginosa PAO1. In words: Inhibition of beta-lactamase activity in Pseudomonas aeruginosa PAO1 17/14-017 (ST-235) assessed as MIC for cefpodoxime antibacterial activity at 4 mg/L by broth microdilution method.
Assay [2] has as its system Pseudomonas aeruginosa PAO1. The assay can be described thus: Inhibition of beta-lactamase activity in Pseudomonas aeruginosa PAO1 36/14-210 (ST-235) assessed as MIC for cefpodoxime antibacterial activity at 4 mg/L by broth microdilution method.
Assay [3] has as its system Pseudomonas aeruginosa PAO1. In words: Inhibition of beta-lactamase activity in Pseudomonas aeruginosa PAO1 deltaC+pUCP-(PDC-1) assessed as MIC for cefpodoxime antibacterial activity at 16 mg/L by broth microdilution method.
Assay [4] deals with Pseudomonas aeruginosa PAO1. The assay can be described thus: Inhibition of beta-lactamase activity in Pseudomonas aeruginosa PAO1 deltadacB assessed as MIC for cefpodoxime antibacterial activity at 16 mg/L by broth microdilution method.
For assay [5], the system named is Pseudomonas aeruginosa PAO1. The assay can be described thus: Inhibition of beta-lactamase activity in Pseudomonas aeruginosa PAO1 PAHUAC-14 (ST-966) assessed as MIC for cefpodoxime antibacterial activity at 4 mg/L by broth microdilution method.
Assay [6] concerns Pseudomonas aeruginosa PAO1. The assay can be described thus: Inhibition of beta-lactamase activity in Pseudomonas aeruginosa PAO1 deltadacBdeltaampD assessed as MIC for cefpodoxime antibacterial activity at 16 mg/L by broth microdilution method.
Assay [7] concerns Pseudomonas aeruginosa PAO1. The assay can be described thus: Inhibition of beta-lactamase activity in Pseudomonas aeruginosa PAO1 deltadacBdeltadacC assessed as MIC for cefpodoxime antibacterial activity at 16 mg/L by broth microdilution method.
Assay [8] has as its system Pseudomonas aeruginosa PAO1. The assay can be described thus: Inhibition of beta-lactamase activity in Pseudomonas aeruginosa PAO1 deltaampD assessed as MIC for cefpodoxime antibacterial activity at 4 mg/L by broth microdilution method.
In assay [9] the test system is Pseudomonas aeruginosa PAO1. In words: Inhibition of beta-lactamase activity in Pseudomonas aeruginosa PAO1 23/14-053 (ST-309) assessed as MIC for cefpodoxime antibacterial activity at 4 mg/L by broth microdilution method.
The subject of assay [10] is Pseudomonas aeruginosa PAO1. In words: Inhibition of beta-lactamase activity in Pseudomonas aeruginosa PAO1 deltaC assessed as MIC for cefpodoxime antibacterial activity at 4 mg/L by broth microdilution method.
The subject of assay [11] is Pseudomonas aeruginosa PAO1. The assay can be described thus: Inhibition of beta-lactamase activity in Pseudomonas aeruginosa PAO1 53/22-113 (ST-244) assessed as MIC for cefpodoxime antibacterial activity at 4 mg/L by broth microdilution method.
The nature of assay [12]: Inhibition beta lactamase PDC-1 in Pseudomonas aeruginosa PAO1 assessed as apparent inhibition constant using nitrocefin as substrate measured by 96 well microtitre plate. The note with it: read-out: Ki(app).
The test system of assay [13] is Pseudomonas aeruginosa PAO1. The assay can be described thus: Inhibition of beta-lactamase activity in Pseudomonas aeruginosa PAO1 assessed as MIC for cefpodoxime antibacterial activity at 16 mg/L by broth microdilution method.
For assay [14], the system named is Pseudomonas aeruginosa PAO1. The assay can be described thus: Inhibition of beta-lactamase activity in Pseudomonas aeruginosa PAO1 6/04-224 (ST-175) assessed as MIC for cefpodoxime antibacterial activity at 16 mg/L by broth microdilution method.
Assay [15] deals with Pseudomonas aeruginosa PAO1. The assay can be described thus: Inhibition of beta-lactamase activity in Pseudomonas aeruginosa PAO1 deltaC+pUCP-(PDC-5) assessed as MIC for cefpodoxime antibacterial activity at 4 mg/L by broth microdilution method.
Assay [16] has as its system Pseudomonas aeruginosa PAO1. The assay can be described thus: Inhibition beta lactamase PDC-1 in Pseudomonas aeruginosa PAO1 assessed half life of nitrocefin substrate measured by 96 well microtitre plate assay.
Assay [17] deals with Pseudomonas aeruginosa PAO1. The assay can be described thus: Inhibition of beta-lactamase activity in Pseudomonas aeruginosa PAO1 PAHUAC-27(ST-22) assessed as MIC for cefpodoxime antibacterial activity at 4 mg/L by broth microdilution method.
Assay [18] has as its system Pseudomonas aeruginosa PAO1. In words: Inhibition of beta-lactamase activity in Pseudomonas aeruginosa PAO1 13/09-018 (ST-175) assessed as MIC for cefpodoxime antibacterial activity at 16 mg/L by broth microdilution method.
The subject of assay [19] is Pseudomonas aeruginosa PAO1. The assay can be described thus: Inhibition of beta-lactamase activity in Pseudomonas aeruginosa PAO1 deltaDdeltsDh2deltaDh3 assessed as MIC for cefpodoxime antibacterial activity at 4 mg/L by broth microdilution method.
For assay [20], the system named is Pseudomonas aeruginosa PAO1. The assay can be described thus: Inhibition of beta-lactamase activity in Pseudomonas aeruginosa PAO1 23/14-053 (ST-309) assessed as MIC for cefpodoxime antibacterial activity at 16 mg/L by broth microdilution method.
The test system of assay [21] is Pseudomonas aeruginosa PAO1. The assay can be described thus: Inhibition of beta-lactamase activity in Pseudomonas aeruginosa PAO1 17/14-017 (ST-235) assessed as MIC for cefpodoxime antibacterial activity at 16 mg/L by broth microdilution method.
Assay [22] has as its system Pseudomonas aeruginosa PAO1. In words: Inhibition of beta-lactamase activity in Pseudomonas aeruginosa PAO1 deltadacBdeltapbpGdeltadacC assessed as MIC for cefpodoxime antibacterial activity at 4 mg/L by broth microdilution method.
The subject of assay [23] is Pseudomonas aeruginosa PAO1. In words: Inhibition of beta-lactamase activity in Pseudomonas aeruginosa PAO1 deltadacB assessed as MIC for cefpodoxime antibacterial activity at 4 mg/L by broth microdilution method.
The subject of assay [24] is Pseudomonas aeruginosa PAO1. The assay can be described thus: Inhibition beta lactamase PDC-1 in Pseudomonas aeruginosa PAO1 assessed as inactivation efficiency by measuring acylation rate (k2/K) using nitrocefin as substrate measured by 96 well microtitre plate.
In assay [25] the test system is Pseudomonas aeruginosa PAO1. In words: Inhibition of beta-lactamase activity in Pseudomonas aeruginosa PAO1 6/04-224 (ST-175) assessed as MIC for cefpodoxime antibacterial activity at 4 mg/L by broth microdilution method.
In assay [26] the test system is Pseudomonas aeruginosa PAO1. The assay can be described thus: Inhibition of beta-lactamase activity in Pseudomonas aeruginosa PAO1 deltaC assessed as MIC for cefpodoxime antibacterial activity at 16 mg/L by broth microdilution method.
Assay [27] has as its system Pseudomonas aeruginosa PAO1. The assay can be described thus: Inhibition of beta-lactamase activity in Pseudomonas aeruginosa PAO1 deltaC+pUCP-(PDC-1) assessed as MIC for cefpodoxime antibacterial activity at 4 mg/L by broth microdilution method.
For assay [28], the system named is Pseudomonas aeruginosa PAO1. In words: Inhibition of beta-lactamase activity in Pseudomonas aeruginosa PAO1 deltadacBdeltapbpGdeltadacC assessed as MIC for cefpodoxime antibacterial activity at 16 mg/L by broth microdilution method.
Assay [29] relates to Pseudomonas aeruginosa PAO1. The assay can be described thus: Inhibition of beta-lactamase activity in Pseudomonas aeruginosa PAO1 36/14-210 (ST-235) assessed as MIC for cefpodoxime antibacterial activity at 16 mg/L by broth microdilution method.
Assay [30] is described as follows: Inhibition beta lactamase PDC-1 in Pseudomonas aeruginosa PAO1 using nitrocefin as substrate measured by 96 well microtitre plate.
The test system of assay [31] is Pseudomonas aeruginosa PAO1. The assay can be described thus: Inhibition of beta-lactamase activity in Pseudomonas aeruginosa PAO1 assessed as MIC for cefpodoxime antibacterial activity at 4 mg/L by broth microdilution method.
Assay [32] concerns Pseudomonas aeruginosa PAO1. In words: Inhibition of beta-lactamase activity in Pseudomonas aeruginosa PAO1 deltaDdeltsDh2deltaDh3 assessed as MIC for cefpodoxime antibacterial activity at 16 mg/L by broth microdilution method.
In assay [33] the test system is Pseudomonas aeruginosa PAO1. The assay can be described thus: Inhibition of beta-lactamase activity in Pseudomonas aeruginosa PAO1 deltaC+pUCP-(PDC-5) assessed as MIC for cefpodoxime antibacterial activity at 16 mg/L by broth microdilution method.
The subject of assay [34] is Pseudomonas aeruginosa PAO1. In words: Inhibition of beta-lactamase activity in Pseudomonas aeruginosa PAO1 13/09-018 (ST-175) assessed as MIC for cefpodoxime antibacterial activity at 4 mg/L by broth microdilution method.
The test system of assay [35] is Pseudomonas aeruginosa PAO1. In words: Inhibition of beta-lactamase activity in Pseudomonas aeruginosa PAO1 53/22-113 (ST-244) assessed as MIC for cefpodoxime antibacterial activity at 16 mg/L by broth microdilution method.
The subject of assay [36] is Pseudomonas aeruginosa PAO1. The assay can be described thus: Inhibition of beta-lactamase activity in Pseudomonas aeruginosa PAO1 PAHUAC-27(ST-22) assessed as MIC for cefpodoxime antibacterial activity at 16 mg/L by broth microdilution method.
The test system of assay [37] is Pseudomonas aeruginosa PAO1. The assay can be described thus: Inhibition of beta-lactamase activity in Pseudomonas aeruginosa PAO1 deltadacBdeltadacC assessed as MIC for cefpodoxime antibacterial activity at 4 mg/L by broth microdilution method.
The subject of assay [38] is Pseudomonas aeruginosa PAO1. The assay can be described thus: Inhibition beta lactamase PDC-1 in Pseudomonas aeruginosa PAO1 assessed as deacylation off-rate using nitrocefin as substrate at 30 mins measured by 96 well microtitre plate.
The test system of assay [39] is Pseudomonas aeruginosa PAO1. In words: Inhibition of beta-lactamase activity in Pseudomonas aeruginosa PAO1 deltadacBdeltaampD assessed as MIC for cefpodoxime antibacterial activity at 4 mg/L by broth microdilution method.
In assay [40] the test system is Pseudomonas aeruginosa PAO1. In words: Inhibition of beta-lactamase activity in Pseudomonas aeruginosa PAO1 PAHUAC-14 (ST-966) assessed as MIC for cefpodoxime antibacterial activity at 16 mg/L by broth microdilution method.
In assay [41] the test system is Pseudomonas aeruginosa PAO1. The assay can be described thus: Inhibition of beta-lactamase activity in Pseudomonas aeruginosa PAO1 deltaampD assessed as MIC for cefpodoxime antibacterial activity at 16 mg/L by broth microdilution method.

Regarding `NC(=O)[C@@H]1CC[C@@H]2CN1C(=O)N2OS(=O)(=O)O` [AVIBACTAM SODIUM], the MIC is 4 µg/mL in [1]; 8 µg/mL in assay [2]; 1 µg/mL in assay [3]; 0.5 µg/mL in assay [4]; 4 µg/mL in assay [5]; 1 µg/mL in assay [6]. The MIC in assay [7] came to 0.5 µg/mL; in [8], 1 µg/mL; in [9] it was 1 µg/mL; in [10] it was 1 µg/mL; in assay [11], 4 µg/mL; in assay [13], 1 µg/mL. Moreover, the MIC in assay [14] worked out at 8 µg/mL; in assay [15], 2 µg/mL; in assay [17] it was 1 µg/mL; in assay [18], 8 µg/mL; in assay [19], 2 µg/mL; in assay [20], 1 µg/mL. Besides, the MIC worked out at 4 µg/mL in [21]; 1 µg/mL in assay [22]; 1 µg/mL in assay [23]; 8 µg/mL in [25]; 1 µg/mL in assay [26]; 1 µg/mL in [27]. Moreover, the MIC amounted to 0.5 µg/mL in [28]; 4 µg/mL in assay [29]; 1 µg/mL in [31]; 1 µg/mL in [32]; 1 µg/mL in assay [33]; 2 µg/mL in assay [34]. Also, the MIC in assay [35] stood at 4 µg/mL; in assay [36], 1 µg/mL; in assay [37], 1 µg/mL; in assay [39], 4 µg/mL; in assay [40], 2 µg/mL; in assay [41], 0.5 µg/mL. Also, in assay [12], the Ki stood at 990 nM. In addition, in assay [16], the T1/2 was determined as 28 min. The k2/K inactivation efficiency in [24] is 1370 M⁻¹ s⁻¹. The molecule further came in with an IC50 in [30] of 51 nM. Moreover, the K in assay [38] was 2.6 10^-2/min.
With `C[C@]1(Cn2ccnn2)[C@H](C(=O)O)N2C(=O)C[C@H]2S1(=O)=O` [TAZOBACTAM], the IC50 in assay [30] was 844 nM.

For the origin of these results see ChEMBL document CHEMBL5030517, “6-Halopyridylmethylidene Penicillin-Based Sulfones Efficiently Inactivate the Natural Resistance of Pseudomonas aeruginosa to β-Lactam Antibiotics” (J Med Chem, 2021).
